Nine molecules from ChEMBL document CHEMBL1152626, “Glucose-based spiro-isoxazolines: a new family of potent glycogen phosphorylase inhibitors” (Bioorg Med Chem, 2009) can be followed below.

The structures appear in SMILES notation. Where only a bound is given, the exact number is not on record here.

The assay has as its target T1, Glycogen phosphorylase, muscle form (Oryctolagus cuniculus, UniProt P00489).
T1 sequence (P00489 whole entry): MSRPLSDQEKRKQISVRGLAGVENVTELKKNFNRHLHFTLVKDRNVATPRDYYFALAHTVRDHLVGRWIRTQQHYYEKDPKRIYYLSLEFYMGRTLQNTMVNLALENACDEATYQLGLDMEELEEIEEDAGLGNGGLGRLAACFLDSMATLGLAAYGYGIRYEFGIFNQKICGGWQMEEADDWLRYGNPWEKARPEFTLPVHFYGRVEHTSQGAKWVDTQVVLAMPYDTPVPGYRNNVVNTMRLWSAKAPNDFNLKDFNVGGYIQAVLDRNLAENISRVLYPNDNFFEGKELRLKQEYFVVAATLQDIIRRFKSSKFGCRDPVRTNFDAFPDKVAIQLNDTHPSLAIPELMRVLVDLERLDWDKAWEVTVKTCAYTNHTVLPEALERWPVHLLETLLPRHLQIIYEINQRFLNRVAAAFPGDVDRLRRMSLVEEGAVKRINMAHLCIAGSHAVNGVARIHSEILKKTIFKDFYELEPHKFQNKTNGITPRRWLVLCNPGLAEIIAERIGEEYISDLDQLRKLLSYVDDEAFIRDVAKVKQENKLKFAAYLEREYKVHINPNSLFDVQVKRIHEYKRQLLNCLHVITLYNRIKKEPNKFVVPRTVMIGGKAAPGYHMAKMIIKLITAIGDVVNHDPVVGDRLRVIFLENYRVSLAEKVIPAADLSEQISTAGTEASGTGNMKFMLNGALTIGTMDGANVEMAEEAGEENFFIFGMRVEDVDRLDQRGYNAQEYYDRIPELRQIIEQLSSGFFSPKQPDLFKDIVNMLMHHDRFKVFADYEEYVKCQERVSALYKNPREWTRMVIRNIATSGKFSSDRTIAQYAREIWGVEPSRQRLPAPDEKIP
In words: Inhibition of rabbit muscle glycogen phosphorylase b.
Molecule `CC(=O)NN1C(=O)N[C@@]2(O[C@H](CO)[C@@H](O)[C@H](O)[C@H]2O)C1=O` yielded an inhibition constant (Ki) of 550 µM.
Consider `O=C1NCC(O)NC12O[C@H](CO)[C@@H](O)[C@H](O)[C@H]2O` (some centres undefined), for which the affinity, expressed as Ki, was 59.7 µM.
Next, `CN1C(=O)N[C@@]2(O[C@H](CO)[C@@H](O)[C@H](O)[C@H]2O)C1=O`: 1200 µM.
As to `NN1C(=O)N[C@@]2(O[C@H](CO)[C@@H](O)[C@H](O)[C@H]2O)C1=O`, affinity was put at a Ki of 146 µM.
The figure for `O=C1NC(=O)[C@@]2(N1)OC[C@@H](O)[C@H](O)[C@H]2O` is more than 11500 µM; for `O=C1NC(=O)[C@@]2(C[C@H](O)[C@@H]([C@@H](O)CO)O2)N1` it is 8200 µM; for `O=C1NC(=O)[C@]2(C[C@H](O)[C@@H]([C@@H](O)CO)O2)N1` it is 220000 µM.
Next, `O=C1NC(=S)N[C@@]12OC[C@@H](O)[C@H](O)[C@H]2O`: more than 10000 µM; `O=C1N[C@@]2(O[C@H](CO)[C@@H](O)[C@H](O)[C@H]2O)C(=O)N1O`: 39 µM.

In general, Ki refers to a dissociation constant, usually derived from enzyme kinetics or from competition with a known ligand.
